PubChem BioAssay (NCI)
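Interpolation was linear, between the two tested concentrations surrounding the appropriate level; five concentrations were tested over 48 hours in 96-well plates. GI50: concentration for 50% inhibition of growth. TGI denotes the concentration required for complete inhibition of growth.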

How the values were obtained:
Assay in all cases: NCI anticancer screen, dose series, 48 h
SR leukemia = tested on: SR leukemia
DU-145 prostate = tested on: DU-145 prostate
NCI-H226 lung = tested on: NCI-H226 lung
NCI-H522 lung = tested on: NCI-H522 lung
IGROV1 ovarian = tested on: IGROV1 ovarian
SNB-19 CNS = tested on: SNB-19 CNS
NCI-H460 lung = tested on: NCI-H460 lung
SF-268 CNS = tested on: SF-268 CNS
U251 CNS = tested on: U251 CNS
SK-MEL-5 melanoma = tested on: SK-MEL-5 melanoma
UACC-257 melanoma = tested on: UACC-257 melanoma
SW-620 colon = tested on: SW-620 colon
RXF 393 renal = tested on: RXF 393 renal
HOP-92 NSCLC = tested on: HOP-92 NSCLC
CCRF-CEM leukemia = tested on: CCRF-CEM leukemia
UO-31 renal = tested on: UO-31 renal
UACC-62 melanoma = tested on: UACC-62 melanoma
OVCAR-8 ovarian = tested on: OVCAR-8 ovarian
SK-MEL-28 melanoma = tested on: SK-MEL-28 melanoma
SNB-75 CNS = tested on: SNB-75 CNS
NCI-H23 lung = tested on: NCI-H23 lung
OVCAR-5 ovarian = tested on: OVCAR-5 ovarian
SF-539 CNS = tested on: SF-539 CNS
A549 NSCLC = tested on: A549 NSCLC
MCF7 breast = tested on: MCF7 breast
HS 578T breast = tested on: HS 578T breast
SN12C renal = tested on: SN12C renal
HCT-15 colon = tested on: HCT-15 colon
MDA-MB-231 breast = tested on: MDA-MB-231 breast
T-47D breast = tested on: T-47D breast
MDA-MB-468 breast = tested on: MDA-MB-468 breast
EKVX NSCLC = tested on: EKVX NSCLC
OVCAR-4 ovarian = tested on: OVCAR-4 ovarian
ACHN renal = tested on: ACHN renal
RPMI-8226 leukemia = tested on: RPMI-8226 leukemia
BT-549 breast = tested on: BT-549 breast
HL-60(TB) leukemia = tested on: HL-60(TB) leukemia
HT29 colon = tested on: HT29 colon
NCI/ADR-RES ovarian = tested on: NCI/ADR-RES ovarian
HCC-2998 colon = tested on: HCC-2998 colon
SF-295 CNS = tested on: SF-295 CNS
HOP-62 NSCLC = tested on: HOP-62 NSCLC
COLO 205 colon = tested on: COLO 205 colon
LOX IMVI melanoma = tested on: LOX IMVI melanoma
MOLT-4 leukemia = tested on: MOLT-4 leukemia
A498 renal = tested on: A498 renal
786-0 renal = tested on: 786-0 renal
CAKI-1 renal = tested on: CAKI-1 renal
OVCAR-3 ovarian = tested on: OVCAR-3 ovarian
SK-OV-3 ovarian = tested on: SK-OV-3 ovarian
TK-10 renal = tested on: TK-10 renal
PC-3 prostate = tested on: PC-3 prostate
HCT-116 colon = tested on: HCT-116 colon
MDA-MB-435 = tested on: MDA-MB-435
KM12 colon = tested on: KM12 colon
M14 melanoma = tested on: M14 melanoma
MALME-3M melanoma = tested on: MALME-3M melanoma
SK-MEL-2 melanoma = tested on: SK-MEL-2 melanoma
K-562 leukemia = tested on: K-562 leukemia

CN(C(=O)c1ccc(C(C)(C)C)cc1)c1sc2c(c1C#N)CCC(=O)C2
GI50 (SR leukemia): 2.28 µM | TGI (SR leukemia): 7.1 µM | GI50 (DU-145 prostate): 16.7 µM | TGI (DU-145 prostate): 33.4 µM | GI50 (NCI-H226 lung): 14.1 µM | TGI (NCI-H226 lung): 38.1 µM | GI50 (NCI-H522 lung): 1.75 µM | TGI (NCI-H522 lung): 3.45 µM | GI50 (IGROV1 ovarian): 11.7 µM | TGI (IGROV1 ovarian): 25 µM | GI50 (SNB-19 CNS): 3.7 µM | TGI (SNB-19 CNS): 14.7 µM | GI50 (NCI-H460 lung): 13.1 µM | TGI (NCI-H460 lung): 27.5 µM | GI50 (SF-268 CNS): 4.79 µM | TGI (SF-268 CNS): 24.3 µM | GI50 (U251 CNS): 1.82 µM | TGI (U251 CNS): 3.9 µM | GI50 (SK-MEL-5 melanoma): 2.07 µM | TGI (SK-MEL-5 melanoma): 4.63 µM | GI50 (UACC-257 melanoma): 18 µM | TGI (UACC-257 melanoma): 33.7 µM | GI50 (SW-620 colon): 2.06 µM | TGI (SW-620 colon): 4.17 µM | GI50 (RXF 393 renal): 1.96 µM | TGI (RXF 393 renal): 4.53 µM | GI50 (HOP-92 NSCLC): 3.51 µM | TGI (HOP-92 NSCLC): 15.7 µM | GI50 (CCRF-CEM leukemia): 3.34 µM | TGI (CCRF-CEM leukemia): 10.4 µM | GI50 (UO-31 renal): 2.94 µM | TGI (UO-31 renal): 11.2 µM | GI50 (UACC-62 melanoma): 2.34 µM | TGI (UACC-62 melanoma): 6.4 µM | GI50 (OVCAR-8 ovarian): 9.16 µM | TGI (OVCAR-8 ovarian): 39.6 µM | GI50 (SK-MEL-28 melanoma): 11.2 µM | TGI (SK-MEL-28 melanoma): 23.9 µM | GI50 (SNB-75 CNS): 6.94 µM | TGI (SNB-75 CNS): 24.4 µM | GI50 (NCI-H23 lung): 2.42 µM | TGI (NCI-H23 lung): 6.56 µM | GI50 (OVCAR-5 ovarian): 14 µM | TGI (OVCAR-5 ovarian): 27.6 µM | GI50 (SF-539 CNS): 1.77 µM | TGI (SF-539 CNS): 3.42 µM | GI50 (A549 NSCLC): 16.8 µM | TGI (A549 NSCLC): 35.3 µM | GI50 (MCF7 breast): 11.8 µM | TGI (MCF7 breast): 32 µM | GI50 (HS 578T breast): 3.89 µM | TGI (HS 578T breast): 28.1 µM | GI50 (SN12C renal): 14 µM | TGI (SN12C renal): 27.2 µM | GI50 (HCT-15 colon): 2.04 µM | TGI (HCT-15 colon): 4.13 µM | GI50 (MDA-MB-231 breast): 2.84 µM | TGI (MDA-MB-231 breast): 8.49 µM | GI50 (T-47D breast): 1.83 µM | TGI (T-47D breast): 4.07 µM | GI50 (MDA-MB-468 breast): 2.27 µM | TGI (MDA-MB-468 breast): 5.63 µM | GI50 (EKVX NSCLC): 3.49 µM | TGI (EKVX NSCLC): 14 µM | GI50 (OVCAR-4 ovarian): 2.64 µM | TGI (OVCAR-4 ovarian): 8.45 µM | GI50 (ACHN renal): 3.2 µM | TGI (ACHN renal): 10.5 µM | GI50 (RPMI-8226 leukemia): 2.93 µM | GI50 (BT-549 breast): 1.98 µM | TGI (BT-549 breast): 4.88 µM | GI50 (HL-60(TB) leukemia): 8.84 µM | TGI (HL-60(TB) leukemia): 30.3 µM | GI50 (HT29 colon): 17.8 µM | TGI (HT29 colon): 41 µM | GI50 (NCI/ADR-RES ovarian): 2.68 µM | TGI (NCI/ADR-RES ovarian): 7.44 µM | GI50 (HCC-2998 colon): 5.09 µM | TGI (HCC-2998 colon): 16.6 µM | GI50 (SF-295 CNS): 3.45 µM | TGI (SF-295 CNS): 14 µM | GI50 (HOP-62 NSCLC): 15.2 µM | TGI (HOP-62 NSCLC): 32.1 µM | GI50 (COLO 205 colon): 19.6 µM | TGI (COLO 205 colon): 37.2 µM | GI50 (LOX IMVI melanoma): 2.11 µM | TGI (LOX IMVI melanoma): 5.2 µM | GI50 (MOLT-4 leukemia): 4.21 µM | TGI (MOLT-4 leukemia): 23.5 µM | GI50 (A498 renal): 15.4 µM | TGI (A498 renal): 29.4 µM | GI50 (786-0 renal): 3.72 µM | TGI (786-0 renal): 13.3 µM | GI50 (CAKI-1 renal): 3.8 µM | TGI (CAKI-1 renal): 17.6 µM | GI50 (OVCAR-3 ovarian): 2.43 µM | TGI (OVCAR-3 ovarian): 5.9 µM | GI50 (SK-OV-3 ovarian): 17.9 µM | TGI (SK-OV-3 ovarian): 34.1 µM | GI50 (TK-10 renal): 10.4 µM | TGI (TK-10 renal): 23 µM | GI50 (PC-3 prostate): 2.72 µM | TGI (PC-3 prostate): 8.32 µM | GI50 (HCT-116 colon): 2.08 µM | TGI (HCT-116 colon): 4.91 µM | GI50 (MDA-MB-435): 5.8 µM | TGI (MDA-MB-435): 21.1 µM | GI50 (KM12 colon): 3.97 µM | TGI (KM12 colon): 14.6 µM | GI50 (M14 melanoma): 3.57 µM | TGI (M14 melanoma): 12.8 µM | GI50 (MALME-3M melanoma): 12.6 µM | TGI (MALME-3M melanoma): 26.2 µM | GI50 (SK-MEL-2 melanoma): 14.5 µM | TGI (SK-MEL-2 melanoma): 28.7 µM | GI50 (K-562 leukemia): 3.17 µM | TGI (K-562 leukemia): 10.7 µM
